Measured values reported in publication PMC12395807, “Chemoreceptor family in plant-associated bacteria responds preferentially to the plant signal molecule glycerol 3-phosphate” (Genome Biology, 2025).

How the values were obtained:
[1] = target: ligand binding domain of the chemoreceptor ECA_RS12390 (PacP-LBD, R1, WP_011094075.1) (Pectobacterium atrosepticum, UniProt Q6D464); test: ITC binding to PacP-LBD; conditions: 15 °C, Nb = no binding
Method: (§1) Plasmids for the overexpression of the different proteins were transformed into E. coli BL21(DE3). The resulting strains were grown under continuous stirring (200 rpm) at 30 °C in 2-L Erlenmeyer flasks containing 500 mL of LB medium supplemented with 50 μg/mL kanamycin. At an OD660 of 0.5, protein expression was induced by the addition of 0.1 mM isopropyl β-D-1-thiogalactopyranoside. Growth was continued at 16 °C overnight prior to cell harvesting by centrifugation at 10,000 × g for 20 min. Cell pellets were resuspended in buffer A (Additional file 2: Table S4) and subsequently broken by French press treatment at 62.5 lb/in^2. After centrifugation at 20,000 × g for 30 min, the supernatants were loaded onto 5-mL HisTrap HP columns (Amersham Biosciences) equilibrated with buffer A, and the proteins were eluted with a linear gradient of buffer B (Additional file 2: Table S4). All proteins contain a hexa-histidine tag at the N-terminal extension (Additional file 2: Table S3) and were purified at 4 °C. The purified proteins were dialyzed overnight into the corresponding analysis buffers (Additional file 2: Table S4) for immediate analysis.
(§2) All experiments were conducted on a VP microcalorimeter (Microcal, MA) at 15 °C for PacP-LBD and at 20 °C for the remaining proteins. Proteins were dialyzed into the analysis buffers specified in Additional file 2: Table S4, placed into the sample cell and titrated with aliquots of ligand solutions (1 to 10 mM) freshly prepared in dialysis buffer. The mean enthalpies measured from the injection of the ligands into the analysis buffer were subtracted from the raw titration data prior to data analysis with the MicroCal version of ORIGIN. The data were fitted with the “One binding site model” of ORIGIN.

[2] = target: LBD of chemoreceptor R3 (WP_006464688.1) (Herbaspirillum frisingense, UniProt A0ABU1PC34); test: ITC binding to R3-LBD; conditions: 20 °C, Nb = no binding
LBD of chemoreceptor R3 (WP_006464688.1), sequence (A0ABU1PC34 entry or part of it): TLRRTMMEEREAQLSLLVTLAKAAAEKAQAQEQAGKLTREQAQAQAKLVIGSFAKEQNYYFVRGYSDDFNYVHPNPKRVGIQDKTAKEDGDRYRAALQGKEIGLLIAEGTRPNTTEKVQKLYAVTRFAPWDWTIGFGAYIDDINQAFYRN
Method: as §1, §2

[3] = target: LBD of chemoreceptor R4 (WP_158281851.1) (Rivihabitans pingtungensis, UniProt A0A318KJN4); test: ITC binding to R4-LBD; parameters: species or system Rivicola pingtungensis; conditions: 20 °C, Nb = no binding
LBD of chemoreceptor R4 (WP_158281851.1), sequence (A0A318KJN4 entry or part of it): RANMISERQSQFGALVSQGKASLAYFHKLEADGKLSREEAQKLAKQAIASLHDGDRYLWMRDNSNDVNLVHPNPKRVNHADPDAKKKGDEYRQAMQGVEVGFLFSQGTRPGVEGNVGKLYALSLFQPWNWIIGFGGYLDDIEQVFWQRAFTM
Method: as §1, §2

[4] = target: LBD of chemoreceptor R5 (WP_028444678.1); test: ITC binding to R5-LBD; parameters: species or system Chitinimonas koreensis; conditions: 20 °C, Nb = no binding
Method: as §1, §2

[5] = target: LBD of chemoreceptor R6 (WP_174062248.1); test: ITC binding to R6-LBD; parameters: species or system Agrobacterium larrymoorei; conditions: 20 °C, Nb = no binding
Method: as §1, §2

ITC binding to R7-LBD = test: ITC binding to R7-LBD; parameters: species or system Methyloversatilis discipulorum; conditions: 20 °C, Nb = no binding
Method: as §1, §2

[6] = target: LBD of chemoreceptor R9 (WP_189529961.1) (Paludibacterium paludis, UniProt A0A918NWY2); test: ITC binding to R9-LBD; conditions: 20 °C, Nb = no binding
LBD of chemoreceptor R9 (WP_189529961.1), sequence (A0A918NWY2 entry or part of it): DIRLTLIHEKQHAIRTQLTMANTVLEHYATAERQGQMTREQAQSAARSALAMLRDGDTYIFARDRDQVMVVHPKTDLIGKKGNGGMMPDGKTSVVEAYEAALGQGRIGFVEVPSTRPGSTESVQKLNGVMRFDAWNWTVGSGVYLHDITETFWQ
Method: as §1, §2

[7] = target: LBD of chemoreceptor R10 (WP_028866120.1); test: ITC binding to R10-LBD; parameters: species or system Psychromonas aquimarina; conditions: 20 °C, Nb = no binding
Method: as §1, §2

[8] = tested on: PacP-LBD mutant (Y86, H100, R105, Y121, K148 and Y167 replaced by alanine); test: ITC binding to PacP-LBD binding site motif mutant; parameters: species or system Pectobacterium atrosepticum; conditions: 36 μM PacP-LBD alanine mutant; 1 mM glycerol 3-phosphate, 2.5 mM glyceraldehyde 3-phosphate
Method: as §1, with “The purified proteins were dialyzed overnight into the corresponding analysis buffers (Additional file 2: Table S4) for immediate analysis.” left out
All experiments were conducted on a VP microcalorimeter (Microcal, MA) at 15 °C for PacP-LBD and at 20 °C for the remaining proteins. […] The mean enthalpies measured from the injection of the ligands into the analysis buffer were subtracted from the raw titration data prior to data analysis with the MicroCal version of ORIGIN. […]

P. atrosepticum SCRI1043 = test: Quantitative capillary chemotaxis assay, wild type; assay type: cell-based, Pectobacterium atrosepticum; conditions: wild type SCRI1043, 1 mM ligand, 30 min
Method: (§3) Overnight cultures of P. atrosepticum SCRI1043 were grown at 30 °C in minimal medium. At an OD660 of 0.4–0.45, the cultures were washed twice with chemotaxis buffer (50 mM K2HPO4/KH2PO4, 20 μM EDTA, 0.05% (v/v) glycerol, pH 7.0) and diluted to an OD660 of 0.1 in the same buffer. Subsequently, 230 μL of the resulting bacterial suspension was placed into the wells of 96-well plates. One-microliter capillary tubes (P1424, Microcaps; Drummond Scientific) were heat-sealed at one end and filled with either chemotaxis buffer (negative control) or chemotaxis buffer containing PacP ligands at a concentration of 1 mM. The capillaries were immersed in the bacterial suspensions at their open ends. After 30 min at room temperature, the capillaries were removed from the bacterial suspensions, rinsed with sterile water, and the contents were expelled into 1 mL of 40 mM K2HPO4, 15 mM KH2PO4. Serial dilutions were plated onto minimal medium supplemented with 15 mM glucose as the carbon source. The number of colony-forming units was determined after 36 h of incubation at 30 °C. In all the cases, the data were corrected with the number of cells that swam into the buffer-containing capillaries.

[9] = tested on: P. atrosepticum SCRI1043 pacP mutant (MpacP); test: Quantitative capillary chemotaxis assay, pacP mutant; assay type: cell-based, Pectobacterium atrosepticum; conditions: 1 mM ligand
Source text: A mutant defective in ECA_RS12390 was constructed by homologous recombination using a derivative plasmid of the suicide vector pKNG101. Briefly, a 0.5-kb fragment corresponding to the region encoding the LBD of ECA_RS12390 was amplified by the primers specified in Additional file 2: Table S2 and cloned into pGEM®-T. The resulting plasmid pGEM::ECA_RS12390 was digested with XmaI, and the 0.5-kb insert was cloned into the same site at pKNG101 to generate pKNG101::ECA_RS12390. This plasmid was subsequently transformed into P. atrosepticum SRCI1043 via biparental conjugation using E. coli β2163. All the plasmids were verified by PCR and sequencing. The pETb(+) derivatives encoding the LBD of the different receptors analyzed in this study (Table 1) were purchased from GeneScript. Plasmid pBBR-ECA_RS12390 was constructed by amplifying the pacP gene using the primers detailed in Additional file 2: Table S2 and cloning of the PCR product into the NdeI/BamHI sites of pBBR1MCS2_START. The sequences of the proteins analyzed in this study are provided in Additional file 2: Table S3. The ECA_RS12390 nucleotide sequence is available in the published genome of P. atrosepticum SCRI1043 [60].
as §3

[10] = tested on: Pectobacterium atrosepticum SCRI1043; test: Growth experiment, sole carbon source; assay type: cell-based; conditions: PFM9 minimal medium, 5 mM ligand, 30 °C, 48 h
Method: (§4) P. atrosepticum SCRI1043 was cultured overnight in phosphate-free M9-based medium (PFM9) supplemented with 20 mM glucose as the carbon source and 500 µM inorganic phosphate as the phosphate source. Cultures were washed and then diluted to an OD600 of 0.02 in PFM9 supplemented with different PacP ligands as the sole carbon or phosphorous source at a final concentration of 5 mM. Subsequently, 200 µL aliquots of these cultures were transferred into microwell plates, which were subsequently grown at 30 °C on a Bioscreen microbiological growth analyzer (Oy Growth Curves Ab Ltd., Helsinki, Finland) for 48 h.

[11] = tested on: Pectobacterium atrosepticum SCRI1043; test: Growth experiment, sole phosphorus source; assay type: cell-based; conditions: PFM9 minimal medium, 5 mM ligand, 30 °C, 48 h
Method: as §4

ligand binding domain of the chemoreceptor ECA_RS12390 (PacP-LBD, R1, WP_011094075.1), sequence (Q6D464 entry or part of it): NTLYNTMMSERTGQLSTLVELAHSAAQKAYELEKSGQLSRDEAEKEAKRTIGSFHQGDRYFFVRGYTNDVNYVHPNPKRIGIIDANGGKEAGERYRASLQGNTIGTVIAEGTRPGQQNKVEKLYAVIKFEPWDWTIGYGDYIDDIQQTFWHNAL

## O=CC(O)COP(=O)(O)O (stereo not shown) [glyceraldehyde 3-phosphate]
[1]
  Kd: 58 ± 2 µM
[2]
  KD: Nb
[3]
  Kd: 100 ± 2 µM
[4]
  KD: Nb
[5]
  KD: Nb
ITC binding to R7-LBD
  Kd: 126 ± 9 µM
[6]
  KD: Nb
[7]
  KD: Nb
[8]
  binding in microcalorimetric titration: absence of binding
P. atrosepticum SCRI1043
  chemotaxis (capillary assay): Modest chemoattraction
[9]
  chemotaxis (capillary assay): Only glycerol 2-phosphate served as an attractant for the mutant
[10]
  growth as sole carbon source: devoid of apparent metabolic value
[11]
  growth as sole phosphorus source: devoid of apparent metabolic value
